Test results: patent US10722501B2 (BAYER AKTIENGESELLSCHAFT, priority 2016, dated 2020)

The molecules below were run against T1, recombinant full-length human prolyl endopeptidase (PREP) (Homo sapiens, UniProt P48147) (assay: Biochemical human prolyl endopeptidase (PREP) assay with fluorescently labelled substrate). Settings: substrate Z-Gly-Pro-AMC 50 μM, 32° C., 60 min; some as mean values from multiple independent determinations.
T1 construct: To recombinant full-length human prolyl endopeptidase (PREP, R&D-Systems, 4308-SE); purchased R&D-Systems 4308-SE
T1 sequence (P48147 1-710): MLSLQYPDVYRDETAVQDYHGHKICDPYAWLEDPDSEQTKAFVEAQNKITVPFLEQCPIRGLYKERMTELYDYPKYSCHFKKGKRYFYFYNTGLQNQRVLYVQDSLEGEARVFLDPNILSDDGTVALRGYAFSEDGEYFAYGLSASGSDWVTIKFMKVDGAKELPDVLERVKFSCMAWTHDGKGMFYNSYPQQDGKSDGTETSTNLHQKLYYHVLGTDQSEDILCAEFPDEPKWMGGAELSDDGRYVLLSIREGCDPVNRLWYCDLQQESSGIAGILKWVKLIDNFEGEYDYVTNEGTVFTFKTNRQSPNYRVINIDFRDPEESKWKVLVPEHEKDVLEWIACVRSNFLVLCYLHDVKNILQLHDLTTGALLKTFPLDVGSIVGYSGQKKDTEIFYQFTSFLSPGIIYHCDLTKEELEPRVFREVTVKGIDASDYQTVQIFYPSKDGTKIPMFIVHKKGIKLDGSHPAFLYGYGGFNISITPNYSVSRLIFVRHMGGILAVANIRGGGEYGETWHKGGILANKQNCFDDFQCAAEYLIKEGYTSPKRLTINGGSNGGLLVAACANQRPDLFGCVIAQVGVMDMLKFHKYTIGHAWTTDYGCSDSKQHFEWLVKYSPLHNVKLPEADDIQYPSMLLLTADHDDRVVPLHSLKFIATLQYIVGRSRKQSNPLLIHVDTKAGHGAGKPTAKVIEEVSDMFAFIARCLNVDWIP
In short: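 Initial rates of fluorescence increase from 50 μM Z-Gly-Pro-AMC cleavage (ex 360/em 465 nm, 60 min, 32° C) give percent PREP activity versus no-compound control, and IC50 is interpolated. Enzyme used at 0.4 nM (final, example) in Tris pH 7.5 with EDTA, GSH, BSA and Brij-35; compounds span 1 nM to 30 μM.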

Question: For `O=C([C@@H]1CCCc2nn(Cc3ccc(F)cc3Cl)c(=O)n21)N1CC(F)C1` [Example 476, (5S)-2-(2-Chloro-4-fluorobenzyl)-5-[(3-fluoroazetidin-1-yl)carbonyl]-5,6,7,8-tetrahydro[1,2,4]triazolo[4,3-a]pyridin-3(2H)-one], which IC50 is on record?
Answer: The IC50 was 0.78 nM.

Question: Which IC50 does the source give for `O=C(C1C(C(F)(F)F)CCc2nn(Cc3ncc(Cl)cc3Cl)c(=O)n21)N1C[C@@H](F)[C@@H](F)C1` (mixture of isomers) [Example 287, (5RS,6RS)-2-[(3,5-Dichloropyridin-2-yl)methyl]-5-{[(3R,4S)-3,4-difluoropyrrolidin-1-yl]carbonyl}-6-(trifluoromethyl)-5,6,7,8-tetrahydro[1,2,4]triazolo[4,3-a]pyridin-3(2H)-one] here?
Answer: The IC50 was 23 nM.

Question: For `O=C([C@@H]1CCCc2nn(Cc3cnc(C(F)(F)F)c(Cl)c3)c(=O)n21)N1C[C@@H](F)[C@@H](F)C1` [Example 440, (5S)-2-{[5-Chloro-6-(trifluoromethyl)pyridin-3-yl]methyl}-5-{[(3R,4S)-3,4-difluoropyrrolidin-1-yl]carbonyl}-5,6,7,8-tetrahydro[1,2,4]triazolo[4,3-a]pyridin-3(2H)-one], which IC50 is on record?
Answer: The IC50 was 0.715 nM.

Question: How did the IC50 turn out when `Cc1ccc(C(=O)Cn2nc3n(c2=O)[C@H](C(=O)N2CC[C@H](F)C2)CCC3)cc1` [Example 516, (5S)-5-{[(3S)-3-Fluoropyrrolidin-1-yl]carbonyl}-2-[2-(4-methylphenyl)-2-oxoethyl]-5,6,7,8-tetrahydro[1,2,4]triazolo[4,3-a]pyridin-3(2H)-one] was run?
Answer: The IC50 was 4.2 nM.

Question: With `COc1ccc(Cn2nc3n(c2=O)C(C(=O)N2CCCC2)CCC3)cc1` (racemic) [Example 36, (5RS)-2-(4-Methoxybenzyl)-5-(pyrrolidin-1-ylcarbonyl)-5,6,7,8-tetrahydro[1,2,4]triazolo[4,3-a]pyridin-3(2H)-one] as the molecule, how does the IC50 read?
Answer: The IC50 was 3.65 nM.

Question: `O=C([C@@H]1CCCc2nn(Cc3nc(C(F)(F)F)no3)c(=O)n21)N1CC(F)C1` [Example 540, (5S)-5-[(3-Fluoroazetidin-1-yl)carbonyl]-2-{[3-(trifluoromethyl)-1,2,4-oxadiazol-5-yl]methyl}-5,6,7,8-tetrahydro[1,2,4]triazolo[4,3-a]pyridin-3(2H)-one] was tested. Which IC50 did it give?
Answer: The IC50 was 27 nM.

Question: With `Cc1ccc(Cn2nc3n(c2=O)[C@H](C(=O)N2CC[S+]([O-])C2)CCC3)cc1` (single isomer, unassigned) [Example 194] as the molecule, how does the IC50 read?
Answer: Its IC50 is 0.375 nM.

Question: With `O=C([C@@H]1CCCc2nn(Cc3ncc(Cl)cc3Cl)c(=O)n21)N1CCC(F)(F)C1` [Example 399, (5S)-2-[(3,5-Dichloropyridin-2-yl)methyl]-5-[(3,3-difluoropyrrolidin-1-yl)carbonyl]-5,6,7,8-tetrahydro[1,2,4]triazolo[4,3-a]pyridin-3(2H)-one] as the molecule, how does the IC50 read?
Answer: The IC50 was 1.55 nM.

Question: Which IC50 does the source give for `O=C(C1C(C(F)(F)F)CCc2nn(Cc3ccc(C(F)(F)F)nc3)c(=O)n21)N1CC(F)C1` (single isomer, unassigned) [Example 305, (5RS,6RS)-5-[(3-Fluoroazetidin-1-yl)carbonyl]-6-(trifluoromethyl)-2-{[6-(trifluoromethyl)pyridin-3-yl]methyl}-5,6,7,8-tetrahydro[1,2,4]triazolo[4,3-a]pyridin-3(2H)-one] here?
Answer: Its IC50 is 14 nM.

Question: `O=C([C@@H]1CCCc2nn(Cc3ccc(C(F)(F)F)nc3)c(=O)n21)N1CC(F)C(F)C1` (single isomer, unassigned) [Example 554] was tested. Which IC50 did it give?
Answer: The IC50 was 10 nM.

Question: For `O=C([C@@H]1CCCc2nn(Cc3ccnc(C(F)(F)F)c3F)c(=O)n21)N1CC2CC1C2` [Example 187, (5S)-5-(2-Azabicyclo[2.1.1]hex-2-ylcarbonyl)-2-{[3-fluoro-2-(trifluoromethyl)pyridin-4-yl]methyl}-5,6,7,8-tetrahydro[1,2,4]triazolo[4,3-a]pyridin-3(2H)-one], which IC50 is on record?
Answer: Its IC50 is 102 nM.

Question: How did the IC50 turn out when `CC1CCC(C(=O)N2C[C@@H](F)[C@@H](F)C2)n2c1nn(Cc1ccc(F)c(Cl)c1)c2=O` (mixture of isomers) [Example 319, (5RS,8RS)-2-(3-Chloro-4-fluorobenzyl)-5-{[(3R,4S)-3,4-difluoropyrrolidin-1-yl]carbonyl}-8-methyl-5,6,7,8-tetrahydro[1,2,4]triazolo[4,3-a]pyridin-3(2H)-one] was run?
Answer: Its IC50 is 0.63 nM.

Question: Which IC50 does the source give for `O=C(C1CCc2nn(Cc3ccc(F)c(Cl)c3)c(=O)n21)N1CC[C@H](F)C1` (mixture of isomers) [Example 165, (5RS)-2-(3-Chloro-4-fluorobenzyl)-5-{[(3S)-3-fluoropyrrolidin-1-yl]carbonyl}-2,5,6,7-tetrahydro-3H-pyrrolo[2,1-c][1,2,4]triazol-3-one] here?
Answer: Its IC50 is 0.89 nM.

Question: How did the IC50 turn out when `O=C([C@@H]1CCCc2nn(Cc3cccc(Br)c3)c(=O)n21)N1CC[C@H](F)C1` [Example 213, (5S)-2-(3-Bromobenzyl)-5-{[(3S)-3-fluoropyrrolidin-1-yl]carbonyl}-5,6,7,8-tetrahydro[1,2,4]triazolo[4,3-a]pyridin-3(2H)-one] was run?
Answer: The IC50 was 0.77 nM.

Question: How did the IC50 turn out when `CC1Cc2nn(Cc3ccc(C(F)(F)F)nc3)c(=O)n2C(C(=O)N2CC(O)C2)C1` (racemic) [Example 134, (5RS,7RS)-5-[(3-Hydroxyazetidin-1-yl)carbonyl]-7-methyl-2-{[6-(trifluoromethyl)pyridin-3-yl]methyl}-5,6,7,8-tetrahydro[1,2,4]triazolo[4,3-a]pyridin-3(2H)-one] was run?
Answer: The IC50 was 79 nM.

Question: Which IC50 does the source give for `Cc1ccc(Cn2nc3n(c2=O)C(C(=O)N2CCCC2)CCC3C)cc1` (racemic) [Example 223, (5RS,8RS)-8-Methyl-2-(4-methylbenzyl)-5-(pyrrolidin-1-ylcarbonyl)-5,6,7,8-tetrahydro[1,2,4]triazolo[4,3-a]pyridin-3(2H)-one] here?
Answer: The IC50 was 0.415 nM.

Question: How did the IC50 turn out when `O=C([C@@H]1CCCc2nn(Cc3cncc(Cl)c3)c(=O)n21)N1CC[C@H](F)C1` [Example 438, (5S)-2-[(5-Chloropyridin-3-yl)methyl]-5-{[(3S)-3-fluoropyrrolidin-1-yl]carbonyl}-5,6,7,8-tetrahydro[1,2,4]triazolo[4,3-a]pyridin-3(2H)-one] was run?
Answer: The IC50 was 1.68 nM.

Question: For `O=C(C1C(C(F)(F)F)CCc2nn(Cc3ncc(Cl)cc3F)c(=O)n21)N1C[C@@H](F)[C@@H](F)C1` (single isomer, unassigned) [Example 292], which IC50 is on record?
Answer: Its IC50 is 37 nM.

Question: `O=C([C@@H]1CCCc2nn(Cc3cncc(Cl)c3)c(=O)n21)N1C[C@@H](F)[C@@H](F)C1` [Example 439, (5S)-2-[(5-Chloropyridin-3-yl)methyl]-5-{[(3R,4S)-3,4-difluoropyrrolidin-1-yl]carbonyl}-5,6,7,8-tetrahydro[1,2,4]triazolo[4,3-a]pyridin-3(2H)-one] was tested. Which IC50 did it give?
Answer: The IC50 was 2.2 nM.

Question: `Cc1nc(Cn2nc3n(c2=O)C(C(=O)N2CCCC2)CCC3)no1` (racemic) [Example 12, (5RS)-2-[(5-Methyl-1,2,4-oxadiazol-3-yl)methyl]-5-(pyrrolidin-1-ylcarbonyl)-5,6,7,8-tetrahydro[1,2,4]triazolo[4,3-a]pyridin-3(2H)-one] was tested. Which IC50 did it give?
Answer: Its IC50 is 99.5 nM.

Question: For `O=C([C@@H]1CCCc2nn(Cc3nnc(C(F)(F)F)o3)c(=O)n21)N1CC[C@H](F)C1` [Example 544, (5S)-5-{[(3S)-3-Fluoropyrrolidin-1-yl]carbonyl}-2-{[5-(trifluoromethyl)-1,3,4-oxadiazol-2-yl]methyl}-5,6,7,8-tetrahydro[1,2,4]triazolo[4,3-a]pyridin-3(2H)-one], which IC50 is on record?
Answer: The IC50 was 4.4 nM.

Question: Which IC50 does the source give for `NS(=O)(=O)c1ccc(Cn2nc3n(c2=O)C(C(=O)N2CCCC2)CCC3)cc1` (racemic) [Example 29, 4-{[(5RS)-3-Oxo-5-(pyrrolidin-1-ylcarbonyl)-5,6,7,8-tetrahydro[1,2,4]triazolo[4,3-a]pyridin-2(3H)-yl]methyl}benzenesulphonamide] here?
Answer: Its IC50 is 1.2 nM.

Question: `O=C(C1CC(C(F)(F)F)Cc2nn(Cc3ccc(Cl)nc3)c(=O)n21)N1CC(F)C1` (single isomer, unassigned) [Example 238, (5RS,7RS)-2-[(6-Chloropyridin-3-yl)methyl]-5-[(3-fluoroazetidin-1-yl)carbonyl]-7-(trifluoromethyl)-5,6,7,8-tetrahydro[1,2,4]triazolo[4,3-a]pyridin-3(2H)-one] was tested. Which IC50 did it give?
Answer: The IC50 was 73 nM.

Question: With `O=C([C@@H]1CCCc2nn(Cc3ccc(C(F)F)nc3)c(=O)n21)N1CCC(F)(F)C1` [Example 208, (5S)-2-{[6-(Difluoromethyl)pyridin-3-yl]methyl}-5-[(3,3-difluoropyrrolidin-1-yl)carbonyl]-5,6,7,8-tetrahydro[1,2,4]triazolo[4,3-a]pyridin-3(2H)-one] as the molecule, how does the IC50 read?
Answer: Its IC50 is 15 nM.

Question: Which IC50 does the source give for `O=C(C1CC(C(F)(F)F)Cc2nn(Cc3ncc(Cl)cc3F)c(=O)n21)N1C[C@@H](F)[C@@H](F)C1` (single isomer, unassigned) [Example 267] here?
Answer: The IC50 was 2.3 nM.

Question: `O=C([C@@H]1CCCc2nn(Cc3ccc(Cl)nc3)c(=O)n21)N1CCC2CC21` (single isomer, unassigned) [Example 197] was tested. Which IC50 did it give?
Answer: Its IC50 is 235 nM.
